# Experiments:
# SK-BR-3 cells = assay: CellTiter-Glo Luminescent Cell Viability Assay, SK-BR-3 cells; assay type: cell-based, human; settings: SK-BR-3, 96 hours, 100 μM down to 10 nM, FIG. 6b
# From the text: (§1) FIGS. 6a-6d depict the results of in vitro assays of the conjugate against four cell lines. FIG. 6A is a chart depicting the results of the conjugate against MCF-7 cells, cells derived from a human breast cancer cell line. FIG. 6B is a chart depicting the results of the conjugate against SK-BR-3 cells, cells derived from a human breast adenocarcinoma cell line. FIG. 6C is a chart depicting the results of the conjugate against HL-60 cells, cells derived from a human promyelocytic leukemia cell line. FIG. 6D is a chart depicting the results of the conjugate against SK-N-MC cells, cells derived from a human brain neuroblastoma (neuroepithelioma) cell line. […]
# (§2) After 96 hours, the effects of doxorubicin and B12-S-doxorubicin on cell viability were determined using an assay from Promega. The CellTiter-Glo™ Luminescent Cell Viability Assay quantitates the ATP present in a culture, which correlates with metabolically active cells. Luminescence, which is dependent on ATP concentration, was measured for each individual well on a Wallac MicroBeta® JET Liquid Scintillation and Luminescence Counter. The average luminescence value of the three wells containing medium alone was subtracted from the raw data values to give corrected values. […] The three corrected values for wells dosed with the same concentration of compound were averaged and the standard deviation calculated. […]
# [1] = system: MX-1 human breast carcinoma xenograft; assay: tumor growth delay, MX-1 xenograft, single-cycle dosing (Example 3)
# Experimental: Test articles were administered on the day of pair matching, Day 1.
# The upper limit of acceptability is 20% weight loss.
# MCF-7 cells = assay: CellTiter-Glo Luminescent Cell Viability Assay, MCF-7 cells; assay type: cell-based, human; settings: MCF-7, 96 hours, 100 μM down to 10 nM, FIG. 6a
# From the text: as §1, §2
# [2] = maximum tolerated dose of the conjugate in nude mice (Example 10); assay type: in vivo, Charles River nude (athymic) mice; settings: 5 consecutive daily intravenous doses, FIG. 10
# Experimental: The following procedure was used to investigate the maximum tolerated dose of the vitamin B12-doxorubicin conjugate in Charles River nude (athymic) mice. Five groups of 5 mice each were weighed and then administered the first of 5 consecutive daily doses of intravenous conjugate; dose levels were 8, 16, 32, 48 and 54 mg/kg/day. Overall toxicity was assessed by weighing the mice twice weekly starting on Day 1 of dosing (the initial dose) and by frequent inspection for clinical signs and symptoms. The NCI definition of the MTD for cancer chemotherapy in mice was adopted for this study. The desirable MTD is that dose of drug mediating a maximum mean body weight loss of ≦10% and no toxic deaths. The upper limit of the MTD is that dose causing a mean 20% weight loss in the group, and one death per 10 animals. After dosing once a day for 5 consecutive days, animals were monitored for another 5 days to address recurrent and latent toxicities.
# [3] = system: MX-1 human breast carcinoma xenograft; assay: tumor growth delay, MX-1 xenograft, two-cycle dosing (Example 11)
# Experimental: The following procedure was used to investigate the tumor growth delay effects of the conjugate, particularly for the treatment of MX-1 human breast carcinoma xenograft in athymic mice using a two-cycle dosing regimen. Female nude Harlan mice are implanted subcutaneously with 1 mm^3 MX 1 solid tumor fragments in the flank. During the pre-dose phase of implantation and growth, tumors are initially monitored twice weekly, and then daily as the neoplasms approach the desired size of 80-120 mg. When the majority of tumors reached the targeted weight range (80-120 mg), mice are pair-matched into 5 treatment groups of 10 mice each. For purposes of this illustrationon the effect of 2-cycles of treatment, data from 3 groups are shown: no treatment, 3 mg/kg/day (days 1-5, 21-25) intravenous Doxorubicin and 24 mg/kg/day (days 1-5, 21-25) intravenous bioconjugate. Test article administration began on this day, referred to as Day 1. The tumor growth delay endpoint is reached when the tumor on the mouse reaches 1.5 gm weight estimated by the formula: Tumor weight (mg)=w^2×l/2×1 mg/mm^3, where w=width (mm) and l=length (mm) of the tumor. The median time to endpoint is calculated for each treatment group.
# [4] = 32 mg/kg/day x 5 days intravenous
# [5] = 32 mg/kg/day x 5 days intravenous, group of 10 mice
# [6] = lower dose than 24 mg/kg/day, data not shown
# [7] = two cycles of 24 mg/kg/day intravenous
# [8] = two cycles of 24 mg/kg/day intravenous, at 71 days
structure (smiles),measurement,setting,value
"COc1cccc2c1C(=O)c1c(O)c3c(c(O)c1C2=O)C[C@@](O)(C(=O)CO)C[C@@H]3O[C@H]1C[C@H](NC(=O)OCc2ccc(NC(=O)[C@H](CCCCN)NC(=O)[C@H](Cc3ccccc3)NC(=O)CCCCCNC(=O)OC[C@H]3O[C@H](n4cnc5cc(C)c(C)cc54)[C@H](O)[C@@H]3OP(=O)(O)O[C@H](C)CNC(=O)CC[C@@]3(C)C4=C(C)C5=NC(=CC6=NC(=C(C)C7=N[C@@](C)([C@H](N4)[C@@H]3CC(N)=O)[C@@](C)(CC(N)=O)[C@@H]7CCC(N)=O)[C@@](C)(CC(N)=O)[C@@H]6CCC(N)=O)C(C)(C)[C@@H]5CCC(N)=O)cc2)[C@H](O)[C@H](C)O1 [conjugate 13, B12-5′-OCONH(CH2)5CO-Phe-Lys-PABC-Dox]",cell viability versus free doxorubicin,SK-BR-3 cells,same effectiveness as doxorubicin and is slightly less potent than doxorubicin
same,median time to endpoint (tumor 1.5 gm),[1]; [4],62.1 days
same,time to endpoint longer than control,[1]; [4],44.3 days
same,treatment or nontreatment related deaths,[1]; [4],no treatment or nontreatment related deaths
same,maximum body weight loss,"[1]; 32 mg/kg/day x 5 days intravenous, day 9",−8.4%
same,"long-term, tumor-free survivors",[1]; [5],4 mice
same,mice that developed complete regression,[1]; [5],6 mice
same,time to endpoint longer than the Doxorubicin active control,"[1]; 32 mg/kg/day x 5 days intravenous, Doxorubicin 3 mg/kg/day",22.6 days
same,toxicity,"[1]; 64 mg/kg/day x 5 days intravenous, group terminated on Day 4",severe toxicity
same,efficacy compared with the free drug (tumor size versus days),[1]; FIG. 9,much greater efficacy than the free drug
same,change in tumor size,"[1]; at about 2-4 weeks after administration, FIG. 9",substantial decrease in tumor size
same,additional toxicity (body weight) from increased amount of doxorubicin in the conjugate,"[1]; single-cycle study, FIG. 12a, 2.3-fold increase of doxorubicin",not associated with additional toxicity
same,cell viability versus free doxorubicin,MCF-7 cells,same effectiveness as doxorubicin and is slightly less potent than doxorubicin
same,"toxicity versus dose, as measured by percent mean body weight loss",[2],clear trend of increasing toxicity with increasing dose
same,MTD,"[2]; mouse, in vivo, percent mean body weight loss, read-out: dose at which the conjugate was well tolerated (MTD study)",≤ 48 mg/kg/day
same,efficacy versus free doxorubicin on a molar equivalent basis,[3]; [6],less efficacious than free doxorubicin
same,tumor growth versus non-treatment control,[3]; [6],delay in tumor growth was observed
same,time to endpoint longer than control mice,"[3]; two cycles of 24 mg/kg/day (days 1-5, 21-25) intravenous",44 days
same,maximum body weight loss,[3]; [7],10%
same,treatment or nontreatment related deaths,[3]; [7],no treatment or nontreatment related deaths
same,"long-term, tumor-free survivors",[3]; [8],7 of 10
same,mice that developed complete regression,[3]; [8],9 of 10
same,recovery from weight loss versus native doxorubicin,"[3]; two-cycle study, FIG. 12b, equivalent dose of doxorubicin in the conjugate 2-fold greater",tended recover from their weight loss sooner
same,weight loss,"[3]; two-cycle study, doxorubicin 3 mg/kg/day, bioconjugate 24 mg/kg/day",significant weight loss
same,reduction of tumor size and delay of tumor growth,"[3]; two-cycle treatment, study day 71, FIG. 11",extremely effective at reducing tumor size and delaying tumor growth

# From US7232805B2, “Cobalamin conjugates for anti-tumor therapy” (Inflabloc Pharmaceuticals, Inc., priority 2003, dated 2007)
